According to US20100022509A1, “Inhibitors of MshC and Homologs Thereof, and Methods of Identifying Same” (priority 2006, published 2010):

Columns and labels:
Assay type in all cases: biochemical, M. tuberculosis
[1] = target: T1, MshC (Mycobacterium tuberculosis, UniProt P9WJM9); assay: Inhibition studies of MshC ligase activity (HEPES pH 7.5, HPLC); settings: for % inhibition: 50 μM GlcN-Ins and 70 μM Cys; for inhibition of the ligase activity, in words: 80-1600 μM, 70 μM L-Cys and 50 μM GlcN-Ins
T1 sequence (P9WJM9 1-414): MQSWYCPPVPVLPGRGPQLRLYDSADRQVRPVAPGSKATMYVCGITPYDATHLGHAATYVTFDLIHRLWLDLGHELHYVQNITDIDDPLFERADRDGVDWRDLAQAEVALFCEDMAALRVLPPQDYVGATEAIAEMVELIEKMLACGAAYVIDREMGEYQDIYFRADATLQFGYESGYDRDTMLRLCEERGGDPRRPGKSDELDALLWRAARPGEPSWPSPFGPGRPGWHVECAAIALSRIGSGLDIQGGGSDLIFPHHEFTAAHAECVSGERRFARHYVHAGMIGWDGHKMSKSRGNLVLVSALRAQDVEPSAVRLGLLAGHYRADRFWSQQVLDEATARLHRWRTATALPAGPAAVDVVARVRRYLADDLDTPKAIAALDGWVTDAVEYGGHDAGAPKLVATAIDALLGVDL

[2] = target: T1, MshC; assay: biochemical; settings: using the HPLC assay
[3] = target: T1, MshC; assay: Coupled enzyme spectrophotometric screening assay (MshC plus pyrophosphatase, malachite green); settings: 1.6 mM cysteamine, 1 μg MshC
[4] = target: T1, MshC; settings: for activity as alternative substrate to Cys, in words: 80 μM to 1.6 mM
[5] = target: T1, MshC; assay: Zn supplementation; settings: 2, 10, 50 or 100 μM zinc chloride
[6] = target: T1, MshC; assay: Metal chelation by phenanthrolines; settings: 0.1-5 mM phenanthroline

Row | Structure (SMILES) | % inhibition ([1]; [inhibitor] 1600 μM) | relative spec. act. [4] | inhibition of the ligase activity, in words [1] | activity as alternative substrate to Cys, in words [4] | also measured
1 | NCCS [cysteamine] | 65 ± 10% | ≦0.16 | – | – | reduction in rate ([1]; 1.6 mM): 3 fold; inhibition of the reaction catalyzed by MshC, in words [2]: weak inhibitor; rate of phosphate production in the coupled enzyme assay [3]: markedly depressed
2 | [Cl-].[Cl-].[Zn+2] [Zn^2+, zinc chloride] | – | – | – | – | effect on enzyme activity, in words [5]: loss in activity
3 | N[C@@H](CO)C(=O)O [L-serine] | – | ≦0.008 | very minor inhibition | Nor was significant activity detected | % inhibition ([1]; [inhibitor] 5000 μM): 15 ± 8%
4 | CC(=O)N[C@@H](CS)C(=O)O [AcCys, N-acetylcysteine] | 20 ± 6% | ≦0.24 | minor inhibition | Nor was significant activity detected | –
5 | c1cnc2c(c1)ccc1cccnc12 [1,10-phenanthroline] | – | – | – | – | effect on enzyme activity, in words [6]: no significant loss of activity
